Measurements reported in patent US7169789B2 (Kirin Beer Kabushiki Kaisha, priority 1999, dated 2007).

Assays:
Human glioma cells GL07 = assay: Antitumor effect on human glioma cells (GL07) transplanted into nude mice; assay type: in vivo; details: Mus musculus, Glioma cell, 216 h, GL07, oral, 20 mg/kg once a day for 9 days, read-out: TGIR, % (tumor growth inhibition rate)
Experimental: Antitumor Effect on Human Glioma Cells (GL07)
Human glioma cells GL07 (obtained from Central Laboratories for Experimental Animals) were transplanted into nude mice. When the tumor volume became about 100 mm^3, the mice were grouped. In this case, grouping was carried out so that each group consisted of four mice and the average tumor volume was even among the groups. The test compound was orally or intraperitoneally administered at a dose of 20 mg/kg to the test groups every day once a day for 9 days, while the medium was administered to the control group in the manner as in the test groups. The tumor growth inhibition rate (TGIR) was calculated as follows: The tumor growth inhibition rate (TGIR)=(1−Tx/Cx)×100 wherein Cx represents the volume of tumor at day x for the control group when the tumor volume at the day of the start of the administration was presumed to be 1; and Tx represents the volume of tumor for test compound administration groups.

human KDR = molecular target: T1, human KDR (Homo sapiens, UniProt P35968); assay: Inhibitory activity against KDR phosphorylation by ELISA; assay type: cell-based; details: NIH 3T3 cells transfected with human KDR, VEGF 100 ng/ml
T1 construct: expressed in transfected cells; host or cells: NIH 3T3 cells (Sawano A et al., Cell Growth & Differentiation 7, 213-221 (1996))
Experimental: Measurement of Inhibitory Activity Against KDR Phosphorylation by ELISA
NIH 3T3 cells (Sawano A et al., Cell Growth & Differentation, 7, 213–221 (1996), “Flt-1 but not KDR/Flk-1 tyrosine kinase is a receptor for placenta growth factor, which is related to vascular endothelial growth factor”) prepared by transfection of human KDR were cultured in a DMEM medium containing 10% fetal calf serum (purchased from GIBCO BRL) within a 5% carbon dioxide incubator until 50 to 70% confluent. The harvested cells were inoculated into wells, containing the same medium, in a collagen-type one-coat 96-well flat-bottom plate in an amount of 1.5×10^4 per well, followed by cultivation at 37° C. overnight. The medium was then replaced by a DMEM medium containing 0.1% fetal calf serum. A solution of the test compound in dimethyl sulfoxide was added to each well, and the cultivation was continued at 37° C. for additional one hr. A human recombinant vascular endothelial growth factor (hereinafter abbreviated to “VEGF”) was added to a final concentration of 100 ng/ml, and the stimulation of cells was carried out at 37° C. for 2 min. The medium was removed, the cells were washed with phosphate buffered saline (pH 7.4), and 50 μl of a solubilization buffer (20 mM HEPES (pH 7.4), 150 mM NaCl, 0.2% Triton X-100, 10% glycerol, 5 mM sodium orthovanadylate, 5 mM disodium ethylenediaminetetraacetate, and 2 mM Na4P2O7) was then added thereto. The mixture was shaken at 4° C. for 2 hr to prepare a cell extract.
Separately, phosphate buffered saline (50 μl, pH 7.4) containing […] of anti-phospho-tyrosine antibody (PY20; purchased from Transduction Laboratories) was added to a microplate for ELISA (Maxisorp; purchased from NUNC), followed by standing at 4° C. overnight to form a solid phase on the wells. After washing of the plate, 300 μl of a blocking solution was added, followed by standing at room temperature for 2 hr to perform blocking. After washing, the whole quantity of the cell extract was transferred to the wells, and the plate was then allowed to stand at 4° C. overnight. After washing, an anti-KDR antibody (purchased from Santa Cruz) was allowed to react at room temperature for one hr, and, after washing, a peroxidase-labeled anti-rabbit Ig antibody (purchased from Amersham) was allowed to react at room temperature for one hr. After washing, a chromophoric substrate for peroxidase (purchased from Sumitomo Bakelite Co., Ltd.) was added thereto to initiate a reaction. After a suitable level of color development, a reaction termination solution was added to stop the reaction, and the absorbance at 450 nm was measured with a microplate reader. The KDR phosphorylation activity for each well was determined by presuming the absorbance with the addition of VEGF and without the addition of the medicament to be 100% KDR phosphorylation activity and the absorbance without the medicament and VEGF to be 0% KDR phosphorylation activity. The concentration of the test compound was varied on several levels, the inhibition (%) of KDR phosphorylation was determined for each case, and the concentration of the test compound necessary for inhibiting 50% of KDR phosphorylation (IC50) was calculated.

T1 sequence (P35968 20-1356): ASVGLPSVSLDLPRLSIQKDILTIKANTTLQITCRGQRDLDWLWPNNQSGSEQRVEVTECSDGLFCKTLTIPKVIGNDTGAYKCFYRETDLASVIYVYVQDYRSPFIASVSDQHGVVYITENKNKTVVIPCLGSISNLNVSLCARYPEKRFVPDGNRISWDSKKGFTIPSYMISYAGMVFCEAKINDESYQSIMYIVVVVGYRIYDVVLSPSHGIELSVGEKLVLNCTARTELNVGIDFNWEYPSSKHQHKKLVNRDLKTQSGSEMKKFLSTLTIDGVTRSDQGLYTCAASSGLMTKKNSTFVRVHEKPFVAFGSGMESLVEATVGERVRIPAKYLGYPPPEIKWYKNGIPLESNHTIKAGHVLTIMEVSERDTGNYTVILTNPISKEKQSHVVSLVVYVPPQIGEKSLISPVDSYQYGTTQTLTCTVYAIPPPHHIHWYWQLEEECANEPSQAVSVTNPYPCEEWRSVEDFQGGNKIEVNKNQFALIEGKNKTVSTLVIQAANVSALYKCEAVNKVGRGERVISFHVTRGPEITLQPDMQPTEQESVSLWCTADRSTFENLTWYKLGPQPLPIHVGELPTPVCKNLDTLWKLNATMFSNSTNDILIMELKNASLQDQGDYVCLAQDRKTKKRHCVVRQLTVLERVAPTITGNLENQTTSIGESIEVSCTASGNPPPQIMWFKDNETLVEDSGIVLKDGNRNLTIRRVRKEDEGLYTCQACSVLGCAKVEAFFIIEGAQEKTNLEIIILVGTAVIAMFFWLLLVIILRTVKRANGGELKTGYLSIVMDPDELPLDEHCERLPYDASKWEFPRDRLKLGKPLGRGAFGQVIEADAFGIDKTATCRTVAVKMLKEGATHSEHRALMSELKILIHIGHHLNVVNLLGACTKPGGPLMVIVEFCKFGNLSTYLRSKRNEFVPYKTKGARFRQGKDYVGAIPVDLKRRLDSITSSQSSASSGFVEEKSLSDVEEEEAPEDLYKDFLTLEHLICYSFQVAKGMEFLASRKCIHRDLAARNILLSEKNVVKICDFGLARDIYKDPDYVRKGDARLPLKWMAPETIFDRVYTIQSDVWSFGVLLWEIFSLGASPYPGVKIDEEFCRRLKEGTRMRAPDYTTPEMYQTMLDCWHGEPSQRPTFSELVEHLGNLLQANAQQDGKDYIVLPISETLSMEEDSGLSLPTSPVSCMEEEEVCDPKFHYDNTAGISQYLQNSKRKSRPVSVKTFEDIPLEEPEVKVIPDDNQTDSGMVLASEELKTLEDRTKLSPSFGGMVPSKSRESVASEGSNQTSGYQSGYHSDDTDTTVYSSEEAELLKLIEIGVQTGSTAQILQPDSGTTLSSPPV

| Structure (SMILES) | inhibition in vivo at 20 mg/kg (Human glioma cells GL07) | IC50 (human KDR) |
| --- | --- | --- |
| CCCNC(=O)Nc1ccc(Oc2ncnc3cc(OCc4ccncc4)c(OC)cc23)cc1Cl [Example 123, N-(2-Chloro-4-{[6-methoxy-7-(4-pyridylmethoxy)-4-quinazolinyl]oxy}phenyl)-N′-propylurea] | 31% | 8.9 nM |
| CCCNC(=O)Nc1ccc(Oc2ncnc3cc(OCCCCCN4CCOCC4)c(OC)cc23)cc1Cl [Example 124, N-[2-Chloro-4-({6-methoxy-7-[(5-morpholinopentyl)oxy]-4-quinazolinyl}oxy)phenyl]-N′-propylurea] | 27% | 1.9 nM |
| CCCNC(=O)Nc1ccc(Oc2ncnc3cc(OCCCCCn4ccnn4)c(OC)cc23)cc1Cl [Example 125, N-{2-chloro-4-[(6-methoxy-7-{[5-(1H-1,2,3-triazol-1-yl)pentyl]oxy}-4-quinazolinyl)oxy]phenyl}-N′-propylurea] | 30% | 2.6 nM |
| CCN(CC)C(=O)Nc1ccc(Oc2ncnc3cc(OCc4ccncc4)c(OC)cc23)cc1Cl [Example 126, N′-(2-Chloro-4-{[6-methoxy-7-(4-pyridylmethoxy)-4-quinazolinyl]oxy}phenyl)-N,N-diethyl-urea] | 52% | > 1000 nM |
| CCCNC(=O)Nc1ccc(Oc2ncnc3cc(OCCCCN4CCOCC4)c(OC)cc23)cc1Cl [Example 127, N-(2-Chloro-4-{[6-methoxy-7-(4-morpholinobutoxy)-4-quinazolinyl]oxy}phenyl)-N′-propylurea] | 25% | 1.1 nM |
| CCN(CC)C(=O)Nc1ccc(Oc2ncnc3cc(OCCn4ccnn4)c(OC)cc23)cc1Cl [Example 131, N′-[2-Chloro-4-({6-methoxy-7-[2-(1H-1,2,3-triazol-1-yl)ethoxy]-4-quinazolinyl}oxy)phenyl]-N,N-diethylurea] | 31% | > 1000 nM |
| CCCNC(=O)Nc1ccc(Oc2ncnc3cc(OCCCSc4ccncc4)c(OC)cc23)cc1Cl [Example 133, N-[2-Chloro-4-({6-methoxy-7-[3-(4-pyridylthio)propoxy]-4-quinazolinyl}oxy)phenyl]-N′-propylurea] | 20% | 8.3 nM |
| CCCNC(=O)Nc1ccc(Oc2ncnc3cc(OCCCSc4nnnn4C)c(OC)cc23)cc1Cl [Example 134, N-{2-Chloro-4-[(6-methoxy-7-{3-[(1-methyl-1H-1,2,3,4-tetrazol-5-yl)thio]propoxy}-4-quinazolinyl)-oxy]phenyl}-N′-propylurea] | 29% | 5 nM |
| CCCNC(=O)Nc1ccc(Oc2ncnc3cc(OCCCN4CCCCC4)c(OC)cc23)cc1Cl [Example 135, N-(2-chloro-4-{[6-methoxy-7-(3-piperidinopropoxy)-4-quinazolinyl]oxy}phenyl)-N′-propylurea] | 62% | 1 nM |
| CCCNC(=O)Nc1ccc(Oc2ncnc3cc(OC)c(OCCN4CCN(C)CC4)cc23)cc1Cl [Example 136, N-[2-Chloro-4-({7-methoxy-6-[2-(4-methylpiperazino)ethoxy]-4-quinazolinyl}oxy)phenyl]-N′-propylurea] | 23% | 160 nM |
| CCCNC(=O)Nc1ccc(Oc2ncnc3cc(OC)c(OCCCN4CCN(C)CC4)cc23)cc1Cl [Example 137, N-[2-Chloro-4-({7-methoxy-6-[3-(4-methylpiperazino)propoxy]-4-quinazolinyl}oxy)phenyl]-N′-propylurea] | 20% | 24 nM |
| CCCNC(=O)Nc1ccc(Oc2ncnc3cc(OC)c(OCc4ccccn4)cc23)cc1Cl [Example 138, N-(2-Chloro-4-{[7-methoxy-6-(2-pyridylmethoxy)-4-quinazolinyl]oxy}phenyl)-N′-propylurea] | 21% | 40 nM |
| CCCNC(=O)Nc1ccc(Oc2ncnc3cc(OC)c(OCCCN4CCOCC4)cc23)cc1Cl [Example 139, N-(2-Chloro-4-{[7-methoxy-6-(3-morpholinopropoxy)-4-quinazolinyl]oxy}phenyl)-N′-propylurea] | 27% | 15 nM |
| CCCNC(=O)Nc1ccc(Oc2ncnc3cc(OC)c(OCCCN(C)CCO)cc23)cc1Cl [Example 140] | 21% | 36 nM |
| CCCNC(=O)Nc1ccc(Oc2ccnc3cc(OCc4ccccn4)c(OC)cc23)cc1Cl [Example 141, N-(2-Chloro-4-{[6-methoxy-7-(2-pyridylmethoxy)-4-quinolyl]oxy}phenyl)-N′-propylurea] | 28% | 14 nM |
| CCCNC(=O)Nc1ccc(Oc2ccnc3cc(OCc4cccnc4)c(OC)cc23)cc1Cl [Example 142, N-(2-chloro-4-{[6-methoxy-7-(3-pyridylmethoxy)-4-quinolyl]oxy}phenyl)-N′-propylurea] | 48% | 2.6 nM |
| CCCNC(=O)Nc1ccc(Oc2ccnc3cc(OCc4ccncc4)c(OC)cc23)cc1Cl [Example 143, N-(2-chloro-4-{[6-methoxy-7-(4-pyridylmethoxy)-4-quinolyl]oxy}phenyl)-N′-propylurea] | 53% | 3.5 nM |
| CCCNC(=O)Nc1ccc(Oc2ccnc3cc(OCCN4CCOCC4)c(OC)cc23)cc1Cl [Example 144, N-(2-chloro-4-{[6-methoxy-7-(2-morpholinoethoxy)-4-quinolyl]oxy}phenyl)-N′-propylurea] | 56% | 1.6 nM |
| CCCNC(=O)Nc1ccc(Oc2ccnc3cc(OCCn4ccnn4)c(OC)cc23)cc1Cl [Example 145, N-[2-chloro-4-(6-methoxy-7-{[2-(1H-1,2,3-triazol-1-yl)ethoxy]-4-quinolyl}oxy)phenyl]-N′-propylurea] | 57% | 0.8 nM |
| CCCNC(=O)Nc1ccc(Oc2ccnc3cc(OCCn4ccnc4)c(OC)cc23)cc1Cl [Example 146, N-[2-chloro-4-(7-{[2-(1H-1-imidazolyl)ethoxy]-6-methoxy-4-quinolyl}oxy)phenyl]-N′-propylurea] | 48% | 1 nM |
| CCCNC(=O)Nc1ccc(Oc2ccnc3cc(OCCCO)c(OC)cc23)cc1Cl [Example 147, N-(2-Chloro-4-{[7-(3-hydroxypropoxy)-6-methoxy-4-guinolyl]oxy}phenyl)-N′-propylurea] | 34% | 1 nM |
| CCCNC(=O)Nc1ccc(Oc2ccnc3cc(OCCN4CCN(C)CC4)c(OC)cc23)cc1Cl [Example 148, N-[2-chloro-4-(6-methoxy-7-{[2-(4-methylpiperazino)ethoxy]-4-quinolyl}oxy)phenyl]-N′-propylurea] | 54% | 15 nM |
| CCCNC(=O)Nc1ccc(Oc2ccnc3cc(OCCO)c(OC)cc23)cc1Cl [Example 149, N-(2-chloro-4-{[7-(2-hydroxyethoxy)-6-methoxy-4-quinolyl]oxy}phenyl)-N′-propylurea] | 47% | 1.6 nM |
| CCCNC(=O)Nc1ccc(Oc2ccnc3cc(OCCN(C)CCO)c(OC)cc23)cc1Cl [Example 150, N-{2-Chloro-4-[(7-{2-[(2-hydroxyethyl)-(methyl)amino]ethoxy}-6-methoxy-4-guinolyl)oxy]phenyl}-N′-propylurea] | 22% | 1.8 nM |
